Results: patent EP1733758A1, “Methods for administration of a farnesyl dibenzodiazepinone” (Ecopia Biosciences Inc., priority 2005, dated 2006)
Where two headings read alike, the source gives them in different places.

Legend:
[1] = Toxicity of 14-day continuous intravenous infusion in monkeys; format: in vivo
Procedure: Cynomolgus monkeys received continuous IV infusion over 14 days of Formula I at 5 mg/kg/day, 15 mg/kg/day, or 30 mg/kg/day. The drug was infused intravenously (24 hours/day) into the femoral vein at a dose rate of 2 ml/kg/hour for 14 consecutive days. Blood samples were removed from each monkey on Days 1, 2, 6, 10, and 15 of the treatment period. Monkeys were bled by venipuncture and samples were collected into tubes containing K2EDTA. On Day 1, samples were collected at 2, 6, and 12 hours after initiation of treatment. Additional samples were collected at 30 hours after the start of infusion (Day 2). On Days 6 and 10, samples were collected at approximately 6 hours after the bag changes. At the end of the 14 days of infusion, on Day 15, samples were collected at 1 hour prior to cessation of dose administration, and at 5 min, 30 min, 1 h, 2 h, 4 h, 8 h, and 24 h following cessation of dose administration.

[2] = Maximum tolerated dose and tolerability of bolus administration in mice; format: in vivo; settings: for MTD: mouse, in vivo
[3] = Population pharmacokinetic analysis (NONMEM), mouse; format: in vivo; settings: Mouse (IV)
Procedure: (§1) An analysis was performed to derive allometric equations for Formula I pharmacokinetic parameters using Formula I plasma concentration-time data from three species, including mouse, rat, and monkey, and to estimate human pharmacokinetic parameters from those allometric equations.
(§2) Plasma concentrations of Formula I were obtained from mice, rats, and monkeys following intravenous injection or continuous infusion. Formula I pharmacokinetic parameters in mice, rats, and monkeys were estimated using population pharmacokinetic analysis, a function of the software program NONMEM™ (version 5). Typical population pharmacokinetic parameters for Formula I in humans were extrapolated from allometric equations that were derived from pharmacokinetic parameters estimated in the three animal species.
A two-compartment model with a first-order elimination from the central compartment adequately described Formula I plasma concentration-time profiles following intravenous bolus injection (30 mg/kg) in mice and rats, 7-day continuous infusion in rats (50 to 170 mg/kg/day), and 14-day continuous infusion in monkeys (5 to 30 mg/kg/day).

[4] = system: P388 murine leukemia cells; test: Murine P388 leukemia survival model; format: in vivo
Procedure: Formulation: The compound of Formula I is first dissolved in 1 volume of 90% propylene glycol (PG). This is followed by the addition of 2 volumes of 45% polyethylene glycol 400 (PEG 400). The volume ratio of PEG 400/PG/water is respectively 30:30:40. Compound is injected in a volume of 10 mL/kg.
DBA/2 female mice (6 weeks of age) were injected intraperitoneally (IP) with 1 x 10^6 P388 murine leukemia cells (day 0). Mice were randomized in 4 groups (10 mice per group) at Day 1 and treated with the following dose and schedule. Group 1: IV injection of vehicle (PEG/PG formulation) on D1 and D8, daily IP administration of vehicle from D2 to D7 and from D9 to D10 Group 2: IV injection of the compound of Formula I in PEG-PG formulation at 50 mg/kg on D1 followed by daily IP administration of the compound of Formula I in PEG-PG formulation at 10 mg/kg from D2 to D4 and from D6 to D12 Group 3: Daily IP administration of the compound of Formula I in PEG-PG formulation at 10 mg/kg from D1 to D4 and from D8 to D14
Mice body weights were recorded twice a week. Lethality and behaviour of animals were recorded every day. All vehicle control mice died between D8 to D10 from peritoneal carcinomatosis associated with ascites. Three (3) mice from group 2 died one day after treatment due to formulation toxicity. The remaining seven (7) died between days 8 and 12. Mice from group 3 died between days 8 and 12. The results are expressed as percent of mean survival time of treated animals over the mean survival time of the control group (treated vs control, T/C%) and as increase life span (mean survival time of treated animals minus that of control animals over the mean survival time of the control group; ILS%).

[5] = Allometric extrapolation of population pharmacokinetic parameters to humans; settings: for half-life: human; for half-life / clearance / Vd: plasma, intravenous; for Vd: read-out: Vss
Procedure: as §1, §2
Allometric equations for the pharmacokinetic parameters clearance (CL), volume of distribution (V1 and V2), and inter-compartmental clearance (Q) were derived. The population PK parameters of the compound of Formula I for humans were extrapolated from the allometric equations, and the estimated values are shown in Table 6. Simulated Formula I plasma concentration-time profiles in humans are shown in Figure 13 and estimated end of infusion concentrations are provided in Table 7.

[6] = Pharmacokinetics of 14-day continuous intravenous infusion in rats; format: in vivo, Sprague-Dawley rats; settings: for steady-state plasma concentration / Css / T½z: 14-day CIV; for Css: average of plasma concentration between 30h and 14 days; for T½z: calculated at the end of treatment
Procedure: Sprague-Dawley rats received an intravenous continuous infusion over 14 days of Formula I at 25 mg/kg/day, 50 mg/kg/day, or 75 mg/kg/day at a rate of 2 mL/kg/h for 14 consecutive days (same formulation as in Example 7). Blood was collected from the jugular vein in tubes containing K2 EDTA from 3 rats/sex/group at the following time points: 2, 6, and 12 hours after the start of dosing on Day 1, on Day 2 at 6 hours (approximately 30 hours after the start of dosing), on Days 6 and 10 at 6 hours, and on Day 15, 1 hour prior the end of dosing, and then at 5 min, 15 min, 30 min, 1 h, and 2 h after the end of dosing.

[7] = typical population PK parameter
[8] = Grp 2: IV 50 mg/kg (D1), IP 10 mg/kg (D2-4 & D6-12)
[9] = Grp 3: IP 10 mg/kg (D1-4 & D8-14)
[10] = Human, WT 70 Kg, estimated from allometric equations
[11] = Human, estimated from allometric equations derived from mouse, rat and monkey

Structure (SMILES): CC(C)=CCC/C(C)=C/CC/C(C)=C/CN1C(=O)c2cccc(O)c2Nc2c(O)cc(O)cc21 [Formula I, 10-farnesyl-4,6,8-trihydroxy-dibenzodiazepin-11-one]
- compound associated toxicity [1]: no severe compound associated toxicity was observed
- degenerative changes in any organs, including the infusion site [1]: No degenerative changes
- effect on body weight, ocular condition, electrocardiographic activity and other parameters assessed [1]: no effect
- histological observations, reflected clearance of the vehicle used [1]: Diffuse vacuolization of hepatocytes and accumulation of foamy histiocytes (macrophages) in the spleen
- side effects (reversible) [1]: inappetance and a moderate degree of regenerative anemia
- tolerability finding ([2]; IP bolus dosing): some intestinal occlusion
- tolerability finding ([2]; SC bolus dosing): swelling and thickening of the skin
- MTD ([2]; IP bolus): 20 mg/kg
- MTD ([2]; IV bolus): 200 mg/kg
- MTD ([2]; SC bolus): 30 mg/kg
- Q ([3]; WT 0.022 Kg): 0.001 L/h
- V1 ([3]; WT 0.022 Kg): 0.004 L
- V2 ([3]; WT 0.022 Kg): 0.005 L
- Ke [3, 7]: 8.466 h⁻¹
- Q [3, 7]: 1.09 mL/min/kg
- V1 [3, 7]: 0.176 L/kg
- V2 [3, 7]: 0.225 L/kg
- % ILS [4, 8]: 33%
- %T/C [4, 8]: 133.3%
- Mean Survival Days ± SD [4, 8]: 11 ± 1.5 days
- Median survival [4, 8]: 12
- % ILS [4, 9]: 38.9%
- %T/C [4, 9]: 138.9%
- Mean Survival Days ± SD [4, 9]: 12.6 ± 4.9 days
- Median survival [4, 9]: 12.5
- mice died one day after treatment due to formulation toxicity ([4]; group 2 (10 mice), IV 50 mg/kg in PEG-PG formulation on D1): 3 mice
- Q [5, 10]: 2.27 L/h
- V1 [5, 10]: 13.9 L
- V2 [5, 10]: 39.2 L
- Ke [5, 11]: 1.192 h⁻¹
- Q [5, 11]: 0.533 mL/min/kg
- V1 [5, 11]: 0.198 L/kg
- V2 [5, 11]: 0.559 L/kg
- half-life ([5]; estimated from allometric equations derived from mouse, rat and monkey, read-out: t1/2,α (converted)): 0.509 h
- half-life ([5]; estimated from allometric equations derived from mouse, rat and monkey, read-out: t1/2,β (converted)): 13.8 h
- clearance [5, 10]: 275 mL/min
- Vd [5, 10]: 53.1 L
- clearance [5, 11]: 3.93 mL/min/kg
- Vd [5, 11]: 0.757 L/kg
- steady-state plasma concentrations ([6]; 14-day CIV at doses of 50 and 75 mg/kg/day, above therapeutic threshold): > 2 µM
- steady-state plasma concentration ([6]; 25 mg/kg/day): ~0.8 µM
- Css ([6]; 25 mg/kg/day): 347 ng/mL
- T½z ([6]; 25 mg/kg/day): 1.6 h
- steady-state plasma concentration ([6]; 50 mg/kg/day): ~2.5 µM
- Css ([6]; 50 mg/kg/day): 1,150 ng/mL
- T½z ([6]; 50 mg/kg/day): 1.2 h
- steady-state plasma concentration ([6]; 75 mg/kg/day): ~3.9 µM
- Css ([6]; 75 mg/kg/day): 1,796 ng/mL
- T½z ([6]; 75 mg/kg/day): 1.2 h
- plasma concentration ([6]; CIV 50 mg/kg/day, Day 10 (unusually high)): 1,753 ng/mL
